From patent US20120207835A1, “BROAD-SPECTRUM BIOCIDE COMPOSITIONS AND A METHOD FOR THEIR PREPARATION” (BROMINE COMPOUNDS LTD., priority 2009, published 2012)

How the values were obtained:
[1] = room temperature; cited from earlier work
A. niger = assay: Agar plate test: diameter of the A. niger growth ring after contact with biocide matrix; assay type: cell-based; conditions: for A. niger diameters (cm), 3 days: day 3; for A. niger diameters (cm), 7 days: day 7; for A. niger diameters (cm), 14 days: day 14; for A. niger diameters (cm), 21 days: day 21; for A. niger diameters (cm), 28 days: day 28
Method: Samples of the prepared materials were dispersed in hot (˜45° C.) agar, under stirring. […] Pure DBNPA and commercial biocide (OTW) were used as standards. All the results were duplicated to assure accuracy.

[2] = 300 ppm in agar (column DBNPA in agar, ppm), inoculum plug ID 1 cm
[3] = 300 ppm in agar, inoculum plug ID 1 cm

Structure (SMILES) | time to loss of activity by decomposition in aqueous media [1] [days] | concentration at which activity is demonstrated (A. niger) [ppm] | time over which activity is lost (A. niger; 300 ppm DBNPA) [days] | A. niger diameters (cm), 3 days (A. niger; [2]) [cm] | A. niger diameters (cm), 7 days (A. niger; [3]) [cm] | A. niger diameters (cm), 14 days (A. niger; [3]) [cm] | A. niger diameters (cm), 21 days (A. niger; [3]) [cm] | A. niger diameters (cm), 28 days (A. niger; [3]) [cm] | A. niger diameters (cm), 3 days (A. niger; 1000 ppm DBNPA in agar) [cm] | A. niger diameters (cm), 7 days (A. niger; 1000 ppm DBNPA in agar) [cm] | A. niger diameters (cm), 14 days (A. niger; 1000 ppm DBNPA in agar) [cm] | A. niger diameters (cm), 21 days (A. niger; 1000 ppm DBNPA in agar) [cm] | A. niger diameters (cm), 28 days (A. niger; 1000 ppm DBNPA in agar) [cm]
N#CC(Br)(Br)C(N)=O [DBNPA, 2,2-dibromo-3-nitrilopropionamide] | 2 to 3 | > 1000 | 3 | 3.7 | 10 | 10 | 10 | 10 | 1 | 1 | 1 | 1 | 1
CCCCCCCCn1sccc1=O [OTW neat, N-octylisothiazolinone] |  |  |  | 1 | 1 | 1 | 1 | 1 |  |  |  |  | 
